Measured values reported in the supplement of paper PMC10307832.

Legend:
Assay in all cases: relative viability (nuclei count vs DMSO), 5 days (fraction); higher = more cells survive
AZ505 + OSI-027 = compound: C1CCC(CC1)N(CCNCCC2=C3C(=C(C=C2)O)NC(=O)CO3)C(=O)CCNCCC4=CC(=C(C=C4)Cl)Cl [AZ505] + COc1cccc2cc(-c3nc([C@H]4CC[C@H](C(=O)O)CC4)n4ncnc(N)c34)[nH]c12 [OSI-027] (partner 0.5 µM)
Method in brief: (§1)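 Lung cancer cell lines, seeded in 1536-well plates, were treated the following day by pin tool with a single drug or with five library-drug doses (not always all listed) in √10 steps on top of a fixed anchor-drug dose. Cells were fixed and nuclei stained in one step after 5 days, and nuclei were counted. Relative viability is the nuclei count for treated wells divided by that for vehicle wells, reported as medians of duplicate plates.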

Dactolisib + Lapatinib = compound: Cn1c(=O)n(-c2ccc(C(C)(C)C#N)cc2)c2c3cc(-c4cnc5ccccc5c4)ccc3ncc21 [Dactolisib] + CS(=O)(=O)CCNCc1ccc(-c2ccc3ncnc(Nc4ccc(OCc5cccc(F)c5)c(Cl)c4)c3c2)o1 [Lapatinib] (partner 2 µM)
Method in brief: as §1

Dactolisib + Dasatinib = compound: Cn1c(=O)n(-c2ccc(C(C)(C)C#N)cc2)c2c3cc(-c4cnc5ccccc5c4)ccc3ncc21 [Dactolisib] + Cc1nc(Nc2ncc(C(=O)Nc3c(C)cccc3Cl)s2)cc(N2CCN(CCO)CC2)n1 [Dasatinib] (partner 0.075 µM)
Method in brief: as §1

AZ505 + Pictilisib = compound: C1CCC(CC1)N(CCNCCC2=C3C(=C(C=C2)O)NC(=O)CO3)C(=O)CCNCCC4=CC(=C(C=C4)Cl)Cl [AZ505] + CS(=O)(=O)N1CCN(Cc2cc3nc(-c4cccc5[nH]ncc45)nc(N4CCOCC4)c3s2)CC1 [Pictilisib] (partner 1 µM)
Method in brief: as §1

Row | Cell Line | relative viability (AZ505 + OSI-027; first compound 0.08 µM) | relative viability (AZ505 + OSI-027; first compound 0.253 µM) | relative viability (AZ505 + OSI-027; first compound 0.8 µM) | relative viability (AZ505 + OSI-027; first compound 2.53 µM) | relative viability (AZ505 + OSI-027; first compound 8 µM) | relative viability (Dactolisib + Lapatinib; first compound 0.002 µM) | relative viability (Dactolisib + Lapatinib; first compound 0.006325 µM) | relative viability (Dactolisib + Lapatinib; first compound 0.02 µM) | relative viability (Dactolisib + Lapatinib; first compound 0.06325 µM) | relative viability (Dactolisib + Lapatinib; first compound 0.2 µM) | relative viability (Dactolisib + Dasatinib; first compound 0.002 µM) | relative viability (Dactolisib + Dasatinib; first compound 0.006325 µM) | relative viability (Dactolisib + Dasatinib; first compound 0.02 µM) | relative viability (Dactolisib + Dasatinib; first compound 0.06325 µM) | relative viability (Dactolisib + Dasatinib; first compound 0.2 µM) | relative viability (AZ505 + Pictilisib; first compound 0.08 µM) | relative viability (AZ505 + Pictilisib; first compound 0.253 µM) | relative viability (AZ505 + Pictilisib; first compound 0.8 µM) | relative viability (AZ505 + Pictilisib; first compound 2.53 µM) | relative viability (AZ505 + Pictilisib; first compound 8 µM)
1 | NCI-H596 | 0.591 | 0.517 | 0.937 | 0.685 | 0.847 | 1.02 | 1.06 | 0.909 | 0.574 | 0.369 | 0.629 | 0.539 | 0.528 | 0.384 | 0.319 | 0.362 | 0.382 | 0.355 | 0.394 | 0.445
2 | H3255 | 0.548 | 0.675 | 0.617 | 0.624 | 0.559 | 0.329 | 0.257 | 0.226 | 0.237 | 0.225 | 0.489 | 0.387 | 0.357 | 0.397 | 0.28 | 0.395 | 0.39 | 0.48 | 0.424 | 0.598
3 | NCI-H647 | 0.615 | 0.698 | 0.488 | 0.619 | 0.693 | 0.912 | 0.799 | 0.646 | 0.184 | 0.169 | 0.164 | 0.191 | 0.143 | 0.0579 | 0.068 | 0.448 |  | 0.359 | 0.422 | 0.485
4 | NCI-H2023 | 0.437 | 0.322 | 0.421 | 0.393 | 0.398 | 0.282 | 0.615 | 0.597 | 0.127 | 0.137 | 0.487 | 0.454 | 0.376 | 0.0921 | 0.0851 | 0.249 | 0.17 | 0.197 | 0.264 | 0.223
5 | NCI-H23 | 0.54 |  | 0.609 | 0.71 | 0.563 | 1.15 | 1.1 | 0.886 | 0.292 | 0.313 | 0.852 | 0.682 | 0.679 | 0.325 | 0.302 | 0.402 |  | 0.582 | 0.416 | 0.478
6 | NCI-H1944 | 0.396 | 0.389 | 0.497 | 0.385 | 0.425 | 0.808 | 0.814 | 0.758 | 0.412 | 0.378 | 0.22 | 0.2 | 0.212 | 0.165 | 0.148 | 0.343 | 0.372 | 0.346 | 0.344 | 0.334
7 | NCI-H1793 | 0.245 | 0.228 | 0.344 |  | 0.37 | 0.631 | 0.409 | 0.325 | 0.195 | 0.242 | 0.388 | 0.312 | 0.253 | 0.16 | 0.134 | 0.284 | 0.417 | 0.426 | 0.31 | 0.386
8 | NCI-H520 | 0.26 | 0.285 | 0.288 | 0.306 | 0.322 | 0.888 | 0.753 | 0.655 | 0.221 | 0.128 | 0.182 | 0.177 | 0.149 | 0.122 | 0.17 | 0.264 | 0.273 | 0.284 | 0.272 | 0.259
9 | NCI-H460 | 0.636 | 0.71 | 0.57 | 0.57 | 0.845 | 0.965 | 0.945 | 0.927 | 0.234 | 0.112 | 0.568 | 0.503 | 0.448 | 0.185 | 0.112 | 0.264 | 0.299 | 0.337 | 0.29 | 0.364
10 | EKVX | 0.674 | 0.714 | 0.684 | 0.645 | 0.717 | 0.242 | 0.189 | 0.212 | 0.164 | 0.129 | 0.523 | 0.578 | 0.382 | 0.269 | 0.204 | 0.388 | 0.466 | 0.425 | 0.446 | 0.501
11 | NCI-H358 | 0.715 | 0.769 | 0.652 | 0.556 | 0.767 | 0.443 | 0.439 | 0.379 | 0.304 | 0.267 | 0.162 | 0.157 | 0.191 | 0.0796 | 0.0694 | 0.3 | 0.332 | 0.355 | 0.313 | 0.371
12 | EPLC-272H |  | 0.251 | 0.22 | 0.263 | 0.283 | 0.879 | 0.728 | 0.664 | 0.687 | 0.4 | 0.359 | 0.254 | 0.318 | 0.207 | 0.233 | 0.255 | 0.306 | 0.285 | 0.256 | 0.289
13 | NCI-H1563 | 0.801 | 0.811 | 0.789 | 0.702 | 0.735 | 0.939 | 0.892 | 0.816 | 0.72 | 0.582 | 0.498 | 0.466 | 0.47 | 0.474 | 0.458 | 0.612 | 0.62 | 0.695 | 0.595 | 0.609
14 | NCI-H1395 | 0.685 | 0.543 | 0.563 | 0.622 | 0.604 | 1 | 0.918 | 0.966 | 0.708 | 0.545 | 0.405 | 0.405 | 0.392 | 0.381 | 0.355 | 0.704 | 0.563 | 0.512 | 0.635 | 0.698
15 | NCI-H2126 | 0.601 | 0.6 | 0.689 | 0.751 | 0.779 | 0.826 | 0.799 | 0.745 | 0.641 | 0.476 | 0.599 | 0.589 | 0.504 | 0.385 | 0.279 | 0.448 | 0.462 | 0.535 | 0.452 | 0.544
16 | LXF-289 | 0.701 | 0.748 | 0.763 | 0.668 | 0.959 | 0.92 | 0.906 | 0.916 | 0.884 | 0.731 | 0.22 | 0.21 | 0.235 | 0.221 | 0.121 | 0.706 |  | 0.773 | 0.731 | 0.818
